The supplement of paper PMC5908809

What was measured:
[1] = tested on: normal NK cells expanded with K562-aAPC; assay: percent inhibition of viability; higher = more inhibition; details: 72 h, IL-2 2.5 ng/mL
Experimental: (§1)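 Drug sensitivity and resistance testing on K562-aAPC-expanded normal NK cells: 5 concentrations (10-fold steps over a 10,000-fold range), 72 h at 37 °C, viability by CellTiter-Glo normalised to DMSO and benzethonium chloride controls; DSS from the fitted curve.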

DERL-7 (IL-2 2.5 ng/mL) [2] = assay: as above; details: 72 h
IMC-1 (IL-2 20 ng/mL) [3] = assay: as above; details: 72 h
KAI3 (IL-2 2.5 ng/mL) [4] = assay: as above; details: 72 h
KHYG-1 (IL-2 2.5 ng/mL) [5] = assay: as above; details: 72 h
NK-92 (IL-2 2.5 ng/mL) [6] = assay: as above; details: 72 h
NK-YS (IL-2 2.5 ng/mL) [7] = assay: as above; details: 72 h
NKL (IL-2 2.5 ng/mL) [8] = assay: as above; details: 72 h
SNK-6 (IL-2 2.5 ng/mL) [9] = assay: as above; details: 72 h
YT (IL-2 2.5 ng/mL) [10] = assay: as above; details: 72 h
[11] = tested on: normal primary NK cells, pool 1 (3 donors) (IL-2 2.5 ng/mL); assay: as above; details: 72 h
[12] = tested on: normal primary NK cells, pool 1 (3 donors), resting (IL-2 0 ng/mL); assay: as above; details: 72 h
[13] = tested on: normal primary NK cells, pool 2 (3 donors) (IL-2 2.5 ng/mL); assay: as above; details: 72 h
[14] = tested on: normal primary NK cells, pool 3 (3 donors) (IL-2 2.5 ng/mL); assay: as above; details: 72 h
[15] = tested on: normal NK cells expanded with K562-aAPC; assay: drug sensitivity score (DSS) (DSS units); higher = more sensitive; extreme values may be limits of the assay; details: 72 h; IL-2 2.5 ng/mL
Experimental: as §1

DERL-7 (IL-2 2.5 ng/mL) [16] = assay: as above; details: 72 h
IMC-1 (IL-2 20 ng/mL) [17] = assay: as above; details: 72 h
KAI3 (IL-2 2.5 ng/mL) [18] = assay: as above; details: 72 h
KHYG-1 (IL-2 2.5 ng/mL) [19] = assay: as above; details: 72 h
NK-92 (IL-2 2.5 ng/mL) [20] = assay: as above; details: 72 h
NK-YS (IL-2 2.5 ng/mL) [21] = assay: as above; details: 72 h
NKL (IL-2 2.5 ng/mL) [22] = assay: as above; details: 72 h
SNK-6 (IL-2 2.5 ng/mL) [23] = assay: as above; details: 72 h
YT (IL-2 2.5 ng/mL) [24] = assay: as above; details: 72 h
[25] = tested on: normal primary NK cells, pool 1 (3 donors) (IL-2 2.5 ng/mL); assay: as above; details: 72 h
[26] = tested on: normal primary NK cells, pool 1 (3 donors), resting (IL-2 0 ng/mL); assay: as above; details: 72 h
[27] = tested on: normal primary NK cells, pool 2 (3 donors) (IL-2 2.5 ng/mL); assay: as above; details: 72 h
[28] = tested on: normal primary NK cells, pool 3 (3 donors) (IL-2 2.5 ng/mL); assay: as above; details: 72 h

O=C(Nc1ccc2[nH]nc(-c3ccncc3)c2c1)[C@@H]1CCN(CC(=O)N2CCN(c3ccc(-c4ncccn4)cc3)CC2)C1 (max concentration tested 10000 nM)
percent inhibition of viability [%]
Details	1 nM	10 nM	100 nM	1000 nM	10000 nM
DERL-7 (IL-2 2.5 ng/mL) [2]	-1.39	5.53	18	42.9	66.6
IMC-1 (IL-2 20 ng/mL) [3]	-5.11	-10.7	-8.77	-10.1	-4.64
KAI3 (IL-2 2.5 ng/mL) [4]	-4.48	5.51	14.6	21	46.9
KHYG-1 (IL-2 2.5 ng/mL) [5]	-2.48	-2.2	5.59	45.6	78.9
NK-92 (IL-2 2.5 ng/mL) [6]	-6.06	-9.07	-16.6	-32.5	12.5
NK-YS (IL-2 2.5 ng/mL) [7]	-4.51	-0.3	-0.1	9.9	40.6
NKL (IL-2 2.5 ng/mL) [8]	-19.4	-14.6	3.59	55.7	71.8
SNK-6 (IL-2 2.5 ng/mL) [9]	-4.99	4.31	5.1	-34.4	15.8
YT (IL-2 2.5 ng/mL) [10]	-0.05	-0.51	-3.3	9.81	22.2
[1]	2.7	-4.22	-5.95	2.93	20.3
[11]	-5.21	-6.91	-5.12	11.2	47.8
[12]	4.46	-7.38	-1.31	12.8	58.7
[13]	-6.14	-5.45	0.32	5.74	15.6
[14]	-13.2	-18.2	-22.8	-10.8	20

Details	drug sensitivity score
DERL-7 (IL-2 2.5 ng/mL) [16]	10.3
IMC-1 (IL-2 20 ng/mL) [17]	0
KAI3 (IL-2 2.5 ng/mL) [18]	5.52
KHYG-1 (IL-2 2.5 ng/mL) [19]	9.89
NK-92 (IL-2 2.5 ng/mL) [20]	0.01
NK-YS (IL-2 2.5 ng/mL) [21]	3.58
NKL (IL-2 2.5 ng/mL) [22]	10.9
SNK-6 (IL-2 2.5 ng/mL) [23]	0.08
YT (IL-2 2.5 ng/mL) [24]	1.87
[15]	1.01
[25]	4.28
[26]	5.24
[27]	0.76
[28]	0.32

CCc1nc(-c2cccc(C)c2)c(-c2ccnc(NC(=O)c3ccccc3)c2)s1 [TAK-715] (max concentration tested 10000 nM)
percent inhibition of viability [%]
Details	1 nM	10 nM	100 nM	1000 nM	10000 nM
DERL-7 (IL-2 2.5 ng/mL) [2]	-3.04	0.75	-2.18	-4.76	8.69
IMC-1 (IL-2 20 ng/mL) [3]	-6.3	1.07	-0.32	8.04	35.2
KAI3 (IL-2 2.5 ng/mL) [4]	-4.52	11.6	8.66	14	47
KHYG-1 (IL-2 2.5 ng/mL) [5]	-3.44	6.66	1.56	3.92	42.6
NK-92 (IL-2 2.5 ng/mL) [6]	-3.47	-2.91	1.84	9.91	81.8
NK-YS (IL-2 2.5 ng/mL) [7]	-4.18	3.4	5.2	13.3	54.6
NKL (IL-2 2.5 ng/mL) [8]	-0.29	6.95	13.8	30.5	43.6
SNK-6 (IL-2 2.5 ng/mL) [9]	-15.1	-7.56	-2.44	-0.98	67
YT (IL-2 2.5 ng/mL) [10]	-1.34	5.71	0.2	5.66	48.7
[1]	-6.95	-2.48	-3.15	7.93	1.86
[11]	-3.9	-10.5	-3.55	-13.9	13.3
[12]	2.15	0.59	-2.35	-18.5	45.6
[13]	-3.82	0.59	1.26	-4.23	23.5
[14]	-8.64	-2.23	3.1	-8.31	13.7

Details	drug sensitivity score
DERL-7 (IL-2 2.5 ng/mL) [16]	0
IMC-1 (IL-2 20 ng/mL) [17]	2.93
KAI3 (IL-2 2.5 ng/mL) [18]	3.97
KHYG-1 (IL-2 2.5 ng/mL) [19]	2.79
NK-92 (IL-2 2.5 ng/mL) [20]	6.19
NK-YS (IL-2 2.5 ng/mL) [21]	5.02
NKL (IL-2 2.5 ng/mL) [22]	6.94
SNK-6 (IL-2 2.5 ng/mL) [23]	3.59
YT (IL-2 2.5 ng/mL) [24]	3.5
[15]	0
[25]	0.02
[26]	1.63
[27]	0.63
[28]	0.05
